# Results published in ChEMBL document CHEMBL4354789, “Recent advances in the discovery of indoleamine 2,3-dioxygenase 1 (IDO1) inhibitors” (Medchemcomm, 2019).
# Experiments:
# [1] = tested on: Plasmodium falciparum; experiment: Antimalarial activity against chloroquine-sensitive Plasmodium falciparum 3D7 infected in erythrocytes assessed as reduction in parasite growth preincubated for 48 hrs followed by addition of [3H]Hypoxanthine and measured after 24 hrs by radiometric method; format: functional, organism-based
# [2] = tested on: Homo sapiens; experiment: In vivo inhibition of IDO1 in human patient assessed as reduction in Serum kynurenine level at 100 to 200 mg, po qd for 2 weeks co-treated with nivo-lumab relative to control; format: functional
# [3] = tested on: Homo sapiens; experiment: In vivo inhibition of IDO1 in human patient assessed as reduction in Serum kynurenine level at 25 to 200 mg, po qd for 2 weeks co-treated with nivo-lumab relative to control; format: functional
# [4] = target: T1, Indoleamine 2,3-dioxygenase 1 (Homo sapiens, UniProt P14902); experiment: Inhibition of IDO1 in HEK293 cells assessed as reduction in L-kynurenine formation incubated for 48 hrs using L-tryptophan as substrate; format: cell-based
# T1 sequence (P14902 whole entry): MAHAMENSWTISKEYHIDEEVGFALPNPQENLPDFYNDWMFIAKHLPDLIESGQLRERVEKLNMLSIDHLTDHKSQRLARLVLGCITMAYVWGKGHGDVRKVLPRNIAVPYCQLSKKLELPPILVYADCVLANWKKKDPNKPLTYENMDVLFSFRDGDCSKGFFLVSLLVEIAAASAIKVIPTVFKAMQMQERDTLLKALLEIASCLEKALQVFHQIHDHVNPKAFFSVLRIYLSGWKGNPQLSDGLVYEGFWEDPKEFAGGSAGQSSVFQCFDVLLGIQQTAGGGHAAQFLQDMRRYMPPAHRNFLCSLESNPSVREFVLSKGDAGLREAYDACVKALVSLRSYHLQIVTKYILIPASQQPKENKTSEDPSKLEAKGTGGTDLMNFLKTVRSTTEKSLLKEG
# [5] = target: T1, Indoleamine 2,3-dioxygenase 1; experiment: Inhibition of recombinant human IDO1 expressed in Escherichia coli assessed as reduction in formation of kynurenine using L-tryptophan as substrate by methylene blue staining based assay
# [6] = target: T1, Indoleamine 2,3-dioxygenase 1; experiment: Inhibition of IDO1 (unknown origin)
# [7] = target: T1, Indoleamine 2,3-dioxygenase 1; experiment: Inhibition of IDO1 in LPS-induced human THP1 cells
# [8] = target: T1, Indoleamine 2,3-dioxygenase 1; experiment: Inhibition of recombinant human N-terminal His-tagged IDO1 expressed in Escherichia coli using L-tryptophan as substrate incubated for 60 mins by HPLC analysis
# [9] = target: T1, Indoleamine 2,3-dioxygenase 1; experiment: Inhibition of recombinant human IDO1 using L-tryptophan as substrate preincubated for 15 mins followed by substrate addition by methylene blue staining based spectrometric method
# [10] = target: T1, Indoleamine 2,3-dioxygenase 1; experiment: Inhibition of IDO1 in IFNgamma-indced human HeLa cells incubated for 48 hrs using L-tryptophan as substrate by colorimetric analysis; format: cell-based
# [11] = tested on: Jurkat; experiment: Cytotoxicity against human Jurkat cells assessed as growth inhibition after 72 hrs by MTT assay; format: functional
# [12] = tested on: A549; experiment: Cytotoxicity against human A549 cells assessed as growth inhibition after 72 hrs by MTT assay; format: functional; conditions: A549, 72 h
# [13] = target: T2, Indoleamine 2,3-dioxygenase 1 (Mus musculus, UniProt P28776); experiment: Inhibition of mouse IDO1 expressed in Escherichia coli Rosetta (DE3) cells
# T2 sequence (P28776 whole entry): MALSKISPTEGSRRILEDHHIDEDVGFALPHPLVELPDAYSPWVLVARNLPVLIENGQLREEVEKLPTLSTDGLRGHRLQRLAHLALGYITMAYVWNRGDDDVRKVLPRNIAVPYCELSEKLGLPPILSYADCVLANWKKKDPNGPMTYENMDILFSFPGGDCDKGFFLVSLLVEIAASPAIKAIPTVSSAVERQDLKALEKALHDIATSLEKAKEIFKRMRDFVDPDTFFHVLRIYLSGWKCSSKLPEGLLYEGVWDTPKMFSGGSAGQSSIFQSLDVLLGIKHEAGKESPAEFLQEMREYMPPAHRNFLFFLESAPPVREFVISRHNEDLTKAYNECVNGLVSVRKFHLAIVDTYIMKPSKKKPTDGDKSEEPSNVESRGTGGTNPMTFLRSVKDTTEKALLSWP
# [14] = target: T1, Indoleamine 2,3-dioxygenase 1; experiment: Inhibition of recombinant human IDO1 expressed in Escherichia coli assessed as reduction in formation of kynurenine using L-tryptophan as substrate measured after 30 mins
# [15] = target: T2, Indoleamine 2,3-dioxygenase 1; experiment: Inhibition of mouse IDO1 expressed in COS1 cells assessed as reduction in N-formyl-kynurenine level incubated for 16 hrs; format: cell-based
# [16] = target: T1, Indoleamine 2,3-dioxygenase 1; experiment: Inhibition of recombinant human His6-tagged IDO1 expressed in Escherichia coli BL21DE3pLysS cells assessed as reduction in N-formyl-kynurenine level using L-tryptophan as substrate incubated for 60 mins
# [17] = target: T1, Indoleamine 2,3-dioxygenase 1; experiment: Inhibition of human IDO1 expressed in COS1 cells assessed as reduction in N-formyl-kynurenine level incubated for 16 hrs; format: cell-based
# [18] = target: T1, Indoleamine 2,3-dioxygenase 1; experiment: Inhibition of recombinant human His6-tagged IDO1 using L-tryptophan as substrate preincubated for 10 mins and measured after 30 mins
# [19] = Tmax in human cancer patient at 2000 mg bid for 28 days by LC-MS method; format: ADME; conditions: in vivo
# [20] = Half life in human cancer patient at 2000 mg bid for 28 days by LC-MS method; format: ADME; conditions: in vivo
# [21] = Antitumour activity in mouse B16 cells pretreated with compound followed by tumour implantation assessed as reduction in tumour size after 4 days relative to control; design: scale not given: the % may be the effect or the level left
# [22] = target: T1, Indoleamine 2,3-dioxygenase 1; experiment: Inhibition of recombinant human IDO1 expressed in COS1 cells by colorimetric method; format: cell-based
smiles,measurement,setting,value
NOCc1cccc(Cl)c1,IC50,[1],0.109 µM
C[C@@H](C(=O)Nc1ccc(Cl)cc1)[C@H]1CC[C@@H](c2ccnc3ccc(F)cc32)CC1,inhibition (INH),[2],>60%
same,inhibition (INH),[3],>45%
Clc1ccc(Nc2cn[nH]n2)cc1,IC50,[4],0.067 µM
C[C@@]12CC[C@H](O)CC1=C(O)C(=O)c1cc3c(cc12)C(=O)C1=C(C3=O)S(=O)(=O)CCN1,IC50,[5],4 µM
COc1cc(OC(=O)c2c(C)c(O)c(OC(=O)c3c(C)cc(O)c(C)c3O)c(C)c2OC)c(C)c(C)c1C(=O)O,IC50,[6],14.5 µM
CC1(C)CCC[C@]2(C)[C@H]3CCC(C=O)C[C@H](O)[C@]3(C=O)CC[C@@H]12 (some centres not stated),IC50,[7],0.045 µM
same,IC50,[8],7.7 µM
CCOc1cc(C(=O)NC(=S)Nc2c(O)ccc3ccccc23)cc(OCC)c1OCC,IC50,[9],18 µM
same,IC50,[10],18 µM
Nc1ccc2cc3cccc[n+]3cc2c1,GI50,[11],62 µM
same,GI50,[12],86 µM
same,IC50,[13],0.164 µM
COC1=CC(=O)c2c(oc(C)c2CO)C1=O,IC50,[14],0.24 µM
CSC(=S)NCc1c[nH]c2ccc(Br)cc12,EC50,[15],26.1 µM
same,Ki,[16],24.5 µM
same,EC50,[17],24 µM
COc1nsc2c1C(=O)c1c(O)cccc1C2=O,IC50,[18],0.0803 µM
Cn1cc(C[C@H](N)C(=O)O)c2ccccc21 (racemic) [(L)-1-METHYLTRYPTOPHAN],Tmax,[19],2.9 h
same,half-life,[20],10.5 h
O[C@H](C[C@H]1c2c(F)cccc2-c2cncn21)[C@H]1CC[C@H](O)CC1 [NAVOXIMOD],Activity,[21],95%
CN1C(=O)C(Cc2c[nH]c3ccccc23)NC1=S (configuration not stated) [NECROSTATIN],EC50,[22],12.8 µM
